Measured values: patent publication US20230000936A1, “A[…] ITCHING […] C[…]” (Demetrix, Inc., priority 2021, published 2023)
Entries after “also recorded” stand apart in the source; their conditions may differ.

Columns and labels:
Format in all cases: cell-based
CHRM2 [1] = molecular target: T1, CHRM2 (Homo sapiens, UniProt P08172); test: GPCR reactivity screen, PathHunter β-Arrestin, antagonist assay CHRM2; conditions: for antagonist activity against CHRM2 (in words): GPCR reactivity screen; for CHRM2 (Antagonist) percent inhibition: antagonist mode, agonist challenge at EC80
T1 sequence (P08172 1-466): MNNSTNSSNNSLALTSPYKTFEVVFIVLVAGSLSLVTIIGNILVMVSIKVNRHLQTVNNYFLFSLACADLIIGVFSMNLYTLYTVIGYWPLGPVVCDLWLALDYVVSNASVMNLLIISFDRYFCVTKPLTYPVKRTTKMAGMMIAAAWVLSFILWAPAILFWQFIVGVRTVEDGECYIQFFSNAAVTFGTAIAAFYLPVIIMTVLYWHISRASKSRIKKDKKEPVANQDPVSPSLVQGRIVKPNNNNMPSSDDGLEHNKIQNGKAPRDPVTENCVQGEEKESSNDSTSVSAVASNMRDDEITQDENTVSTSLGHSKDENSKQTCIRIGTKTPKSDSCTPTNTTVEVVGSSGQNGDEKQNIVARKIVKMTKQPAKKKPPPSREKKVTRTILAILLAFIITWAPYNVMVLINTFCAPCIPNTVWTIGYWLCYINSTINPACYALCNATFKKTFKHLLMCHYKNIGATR
Method: (§1) To evaluate the role specific cannabinoid compounds play in the neurological signaling pathway for itching, a GPCR reactivity assay was performed to determine the reactivity of 19 cannabinoid compounds to each of CHRM2, EDG3, and MRGPRX2. The evaluated cannabinoid compounds were: CBN, THCV, CBDVA, CBG, CBL, CBC, CBDV, CBDA, CBD, CBGA, (+)-CBD, CBG-C4, CBD-C1, CBD-C2, CBGV, CBGA-C4, CBGVA, CBCA, and CBLA. Acetylcholine was used as the control for CHRM2, sphingosine-1-phosphate was used as the control for EDG3; and cortistatin 14 was used as the control for MRGPRX2.
(§2) In each of the antagonist assays, PathHunter® cell lines were removed from a freezer stock and seeded at a volume of 20 μL into white walled, 384-well microplates and incubated at 37° C. Each cell was pre-incubated with an antagonist followed by an agonist challenge at the EC80 concentration. Cells were then diluted to generate a 5× sample in assay buffer. 5 μL of the 5× sample was then added to cells and incubated at 37° C. for 30 minutes. Finally, 5 μL of 6×EC80 agonist in assay buffer were added to the cells and incubated at 37° C. for 90 minutes or 180 minutes. The assay signal was generated through addition of 12.5 μL or 15 μL (50% V/V) of a detection reagent cocktail followed by a one hour incubation time at room temperature. Microplates were read following signal generation with a PerkinElmer Envision™ (PerkinElmer Inc., Waltham, Mass.) for chemiluminescent signal detection. Reactivity was analyzed using the CBIS data analysis suite (ChemInnovation, CA) where RLU refers to the raw measured values. The percent inhibition was calculated using the formula: % Inhibition=100%*(1−mean RLU of test sample−mean RLU of control)/(mean RLU of EC80 control−mean RLU of vehicle control).
(§3) As used herein, strong activity against a receptor is considered a percent activity of about 42% or higher. Higher results for antagonism against CHRM2, EDGE, and MRGPRX2 are considered better. It is further considered better when a cannabinoid inhibits more than one of the receptors.

MRGPRX2 [2] = molecular target: T2, MRGPRX2 (Homo sapiens, UniProt Q96LB1); test: GPCR reactivity screen, PathHunter β-Arrestin, agonist assay MRGPRX2; conditions: agonist mode; control cortistatin 14
T2 sequence (Q96LB1 1-330): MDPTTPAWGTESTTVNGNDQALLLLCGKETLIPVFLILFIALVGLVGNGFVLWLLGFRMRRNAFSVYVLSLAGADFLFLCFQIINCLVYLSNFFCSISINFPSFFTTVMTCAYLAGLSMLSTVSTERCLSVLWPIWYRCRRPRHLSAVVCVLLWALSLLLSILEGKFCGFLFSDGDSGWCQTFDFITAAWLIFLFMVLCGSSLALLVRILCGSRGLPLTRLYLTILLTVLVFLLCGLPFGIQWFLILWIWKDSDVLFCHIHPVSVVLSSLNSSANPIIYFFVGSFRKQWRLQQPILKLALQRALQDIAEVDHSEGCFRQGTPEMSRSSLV
Method: as §1
(§4) A total of six assays were run. Specifically, agonist and antagonist assays were run for each of CHRM2, EDG3, and MRGPRX2. In each of the three agonist assays, PathHunter® cell lines were removed from a freezer stock and seeded at a volume of 20 μL into white walled, 384-well microplates and incubated at 37° C. Each cell was incubated with a sample to induce a response and then diluted to generate a 5× sample in assay buffer. 5 μL of the 5× sample was then added to cells and incubated at 37° C. for 90 or 180 minutes. The final assay concentration was 1%. The assay signal was generated through addition of 12.5 μL or 15 μL (50% V/V) of a detection reagent cocktail followed by a one hour incubation time at room temperature. Microplates were read following signal generation with a PerkinElmer Envision™ (PerkinElmer Inc., Waltham, Mass.) for chemiluminescent signal detection. Reactivity was analyzed using the CBIS data analysis suite (ChemInnovation, CA) where RLU refers to the raw measured values. The percent activity was then calculated using the formula: % Activity=100%*(mean RLU of test sample−mean RLU of control)/(mean max control ligand−mean RLU of vehicle control).
as §3

CHRM2 [3] = molecular target: T1, CHRM2; test: GPCR reactivity screen, PathHunter β-Arrestin, agonist assay CHRM2; set-up: concentration or dose not given beside the values; conditions: agonist mode; control acetylcholine
Method: as §1, §4, §3

EDG3 [4] = molecular target: T3, EDG3 (Homo sapiens, UniProt Q99500); test: GPCR reactivity screen, PathHunter β-Arrestin, agonist assay EDG3; set-up: concentration or dose not given beside the values; conditions: agonist mode; control sphingosine-1-phosphate
Method: as §1, §4, §3

EDG3 [5] = molecular target: T3, EDG3; test: GPCR reactivity screen, PathHunter β-Arrestin, antagonist assay EDG3; conditions: for antagonist activity against EDG3 (in words): GPCR reactivity screen; for EDG3 (Antagonist) percent inhibition: antagonist mode, agonist challenge at EC80
Method: as §1, §2, §3

MRGPRX2 [6] = molecular target: T2, MRGPRX2; test: GPCR reactivity screen, PathHunter β-Arrestin, antagonist assay MRGPRX2; conditions: for antagonist activity against MRGPRX2 (in words): GPCR reactivity screen; for MRGPRX2 (Antagonist) percent inhibition: antagonist mode, agonist challenge at EC80
Method: as §1, §2, §3

MRGPRX2 [7] = molecular target: T2, MRGPRX2; test: IC50 antagonist activity screen, PathHunter β-Arrestin, MRGPRX2; conditions: maximum of IC50 curve
Method: as §2
as §3, with “IC50 curves were measured using the same GPCR assay, PathHunter® β-Arrestin from Eurofins DiscoverX Products (Fremont, Calif.), as the GPCR reactivity screen. As” for “As”, “maximum” for “percent”

T3 sequence (Q99500 whole entry): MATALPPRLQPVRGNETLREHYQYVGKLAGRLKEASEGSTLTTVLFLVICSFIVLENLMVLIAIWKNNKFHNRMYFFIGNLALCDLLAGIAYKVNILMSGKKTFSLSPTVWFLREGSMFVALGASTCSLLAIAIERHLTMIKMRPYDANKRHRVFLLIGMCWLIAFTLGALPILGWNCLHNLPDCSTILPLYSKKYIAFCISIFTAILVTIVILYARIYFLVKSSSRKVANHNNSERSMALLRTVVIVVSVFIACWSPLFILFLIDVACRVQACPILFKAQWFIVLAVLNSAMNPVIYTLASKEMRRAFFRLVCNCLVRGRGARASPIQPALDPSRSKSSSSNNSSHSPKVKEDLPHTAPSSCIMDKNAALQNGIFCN

SMILES | antagonist activity against CHRM2 (in words) (CHRM2 [1]) | CHRM2 (Antagonist) percent inhibition (CHRM2 [1]) [%] | MRGPRX2 (Agonist) percent activity (MRGPRX2 [2]) [%] | CHRM2 (Agonist) percent activity (CHRM2 [3]) [%] | EDG3 (Agonist) percent activity (EDG3 [4]) [%] | antagonist activity against EDG3 (in words) (EDG3 [5]) | EDG3 (Antagonist) percent inhibition (EDG3 [5]) [%] | antagonist activity against MRGPRX2 (in words) (MRGPRX2 [6]) | MRGPRX2 (Antagonist) percent inhibition (MRGPRX2 [6]) [%] | maximum inhibition (antagonism) MRGPRX2 (MRGPRX2 [7]) [%]
C=C(C)[C@@H]1CCC(C)=C[C@H]1c1c(O)cc(C)cc1O [CBD-C1, cannabidiorcol] | do not exhibit an antagonistic effect; also recorded: did not exhibit antagonistic effects | 2 | 1 | −1 | 1 | do not exhibit an antagonistic effect; also recorded: did not exhibit antagonistic effects | 13 | do not exhibit an antagonistic effect; also recorded: did not exhibit antagonistic effects | 12 | 
C=C(C)[C@@H]1CCC(C)=C[C@H]1c1c(O)cc(CC)cc1O [CBD-C2, cannabidol-C2] | do not exhibit an antagonistic effect; also recorded: did not exhibit antagonistic effects | 21 | 1 | 1 | 1 | do not exhibit an antagonistic effect; also recorded: did not exhibit antagonistic effects | 20 | do not exhibit an antagonistic effect; also recorded: did not exhibit antagonistic effects | 31 | 43
C=C(C)[C@@H]1CCC(C)=C[C@H]1c1c(O)cc(CCCCC)c(C(=O)O)c1O [CBDA, cannabidiolic acid] | do not exhibit an antagonistic effect | −10 | 4 | 1 | −1 | do not exhibit an antagonistic effect | 5 | do not exhibit an antagonistic effect | 8 | 
C=C(C)[C@@H]1CCC(C)=C[C@H]1c1c(O)cc(CCC)c(C(=O)O)c1O [CBDVA, cannabidivarinic acid] | do not exhibit an antagonistic effect | 2 | 5 | 2 | −3 | do not exhibit an antagonistic effect | 13 | do not exhibit an antagonistic effect | −8 | 
CCCCc1cc(O)c(CC=C(C)CCC=C(C)C)c(O)c1 [CBG-C4, cannabigerol butyl] |  | 13 | 3 | 0 | 3 |  | 28 | antagonist activity | 94 | 85
CCCCCc1cc(O)c(C/C=C(\C)CCC=C(C)C)c(O)c1C(=O)O [CBGA, cannabigerolic acid] | do not exhibit an antagonistic effect | 12 | 0 | −3 | 2 | do not exhibit an antagonistic effect | 12 | do not exhibit an antagonistic effect | 17 | 
CCCCc1cc(O)c(C/C=C(\C)CCC=C(C)C)c(O)c1C(=O)O [CBGA-C4, cannabigerolic acid butyl] | do not exhibit an antagonistic effect | 19 | −1 | −4 | 0 | do not exhibit an antagonistic effect | 16 | do not exhibit an antagonistic effect | 20 | 
CCCc1cc(O)c(C/C=C(\C)CCC=C(C)C)c(O)c1 [CBGV, cannabigerivarin] |  | 28 | 1 | 0 | 2 |  | 29 | antagonist activity | 95 | 76
CCCc1cc(O)c(C/C=C(\C)CCC=C(C)C)c(O)c1C(=O)O [CBGVA, cannabigerovarinic acid] | do not exhibit an antagonistic effect | 23 | −1 | −4 | −1 | do not exhibit an antagonistic effect | 9 | do not exhibit an antagonistic effect | 7 | 
CCCCCc1cc2c(c(O)c1C(=O)O)C1C3C(CCC3(C)O2)C1(C)C (stereo not drawn) [CBLA, cannabicyclolic acid] |  | −19 | 2 | −4 | 3 |  | 19 |  | 36 | 44
